Data taken from patent US6492416B1, “4,5-diaryl-3(2H)-furanone derivatives as cyclooxygenase-2 inhibitors” (Pacific Corporation, priority 1999, dated 2002).
In brackets after ≈: the same amount, converted by molar mass.

Experiments:
[1] = target: T1, COX-2 (Mus musculus, UniProt Q05769); test: Evaluation of COX-2 activity: PGE2 formation in aspirin-treated, LPS-stimulated mouse peritoneal macrophages; type: cell-based
T1 sequence (Q05769 18-604): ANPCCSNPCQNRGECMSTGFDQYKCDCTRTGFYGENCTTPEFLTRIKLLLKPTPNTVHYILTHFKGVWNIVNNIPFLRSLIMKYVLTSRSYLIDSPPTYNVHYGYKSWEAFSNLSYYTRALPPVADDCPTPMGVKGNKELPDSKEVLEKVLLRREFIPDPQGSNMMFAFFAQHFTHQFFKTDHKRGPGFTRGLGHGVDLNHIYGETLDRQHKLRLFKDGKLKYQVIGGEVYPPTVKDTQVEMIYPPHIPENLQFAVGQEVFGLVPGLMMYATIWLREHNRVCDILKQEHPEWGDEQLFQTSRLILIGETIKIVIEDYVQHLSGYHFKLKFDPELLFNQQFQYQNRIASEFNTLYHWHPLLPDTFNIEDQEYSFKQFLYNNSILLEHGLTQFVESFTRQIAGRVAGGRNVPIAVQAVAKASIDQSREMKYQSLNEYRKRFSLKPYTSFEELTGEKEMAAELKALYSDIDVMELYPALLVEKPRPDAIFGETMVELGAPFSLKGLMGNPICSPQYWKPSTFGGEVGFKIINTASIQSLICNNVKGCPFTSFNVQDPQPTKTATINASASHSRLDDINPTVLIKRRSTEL
Description: (§1) Evaluation of in vitro COX-2 and COX-1 Activity [J. Pharmacol. Exp. Ther. 166, 96 (1969)]
(§2) The abdominal skin of a C57BL/6 mouse was sanitized with 70% aqueous ethanol, and was removed without damaging the peritoneum. 5 ml of cold phosphate buffer solution (PBS) was then injected into the abdominal cavity. After a minute, the peritoneal fluid containing the macrophages was collected using a syringe and a needle. The collected fluid was centrifuged for 5 min at 1500 rpm to afford pellets of cells. The pellets were then dispersed in the RPMI-1640 culture medium containing 100 units/ml penicillin and 100 μg/ml streptomycin.
The pellets dispersed as above were treated with 500 μM aspirin in order to knock out the activity of the COX-1 enzymes in the cells. The suspension was then diluted with the RPMI-1640 medium to contain 1×10^6 cells/ml. 100 μl of the suspension was added to each well of a 96-well ELISA plate. Then the plate was incubated for 2 hrs at 37° C. under 5% CO2 in order to fix the macrophages onto the plate. The cells, which were not fixed onto the plate were removed by washing with PBS two times. […] The RPMI-1640 medium containing 3% fetal bovine serum albumin was added to each well of the plate, which was followed by stimulation with 10 μg/ml lipopolysaccharide (LPS). […] The LPS-treated suspensions were incubated for 16 hours at 37° C. under 5% CO2 to induce COX-2. Then the culture medium was removed and the macrophages were washed two times with PBS. Then 130 μl RPMI-1640 culture medium was added to each well and the macrophage solutions were incubated at 37° C. for 10 minutes, which was followed by the treatment with 10 μM arachidonic acid and an appropriate amount of compounds of this invention. The plate was incubated for another 10 minutes. The upper solution was collected using a micropipette and was subjected to determination of PGE2 amount in the solution. The amount of PGE2 present in the collected solution was determined either by a known radio-immuno assay or by a known enzyme-immunoassay [Methods in Enzymol. 86, 258 (1982); Methods in Enzymol. 187, 24 (1990)]. The extent of COX-2 inhibition by a compound of the present invention was calculated by assuming, that the amount of PGE2 formed with the treatment of 10 μg/ml arachidonic acid was used is the maximum possible amount of PGE2, and that the amount of PGE2 formed without the treatment of arachidonic acid is the minimum possible amount of PGE2.
(§3) In order to determine IC50 for a compound of this invention, enzymatic activities were measured at multiple concentrations of compounds of this invention around IC50 of the compound. Usually enzymatic activities at 4˜5 concentrations were measured to calculate out IC50 for a compound of this invention.

[2] = target: T2, COX-1 (Mus musculus, UniProt P22437); test: Evaluation of COX-1 activity: PGE2 formation in mouse peritoneal macrophages without aspirin and LPS treatment; type: cell-based
T2 sequence (P22437 27-602): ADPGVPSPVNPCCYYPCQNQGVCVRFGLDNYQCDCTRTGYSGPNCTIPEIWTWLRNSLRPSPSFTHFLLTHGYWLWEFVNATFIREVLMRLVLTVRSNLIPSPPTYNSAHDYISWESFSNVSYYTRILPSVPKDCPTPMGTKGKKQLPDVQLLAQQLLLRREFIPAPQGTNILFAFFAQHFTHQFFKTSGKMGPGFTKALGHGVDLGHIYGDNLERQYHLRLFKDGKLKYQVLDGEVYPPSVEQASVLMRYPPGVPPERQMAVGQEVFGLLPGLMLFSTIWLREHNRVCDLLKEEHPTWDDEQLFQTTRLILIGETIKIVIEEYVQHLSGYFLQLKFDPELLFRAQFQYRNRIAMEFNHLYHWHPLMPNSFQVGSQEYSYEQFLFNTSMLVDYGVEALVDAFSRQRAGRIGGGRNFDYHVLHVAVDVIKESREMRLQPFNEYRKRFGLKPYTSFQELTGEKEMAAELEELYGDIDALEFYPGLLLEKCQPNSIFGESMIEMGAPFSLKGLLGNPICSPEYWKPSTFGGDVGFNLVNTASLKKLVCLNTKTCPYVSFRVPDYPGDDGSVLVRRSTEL
Description: as §1, §2
The pellets dispersed as above were treated with 500 μM aspirin in order to knock out the activity of the COX-1 enzymes in the cells. The suspension was then diluted with the RPMI-1640 medium to contain 1×10^6 cells/ml. 100 μl of the suspension was added to each well of a 96-well ELISA plate. Then the plate was incubated for 2 hrs at 37° C. under 5% CO2 in order to fix the macrophages onto the plate. The cells, which were not fixed onto the plate were removed by washing with PBS two times. The purity of macrophages obtained thereby was confirmed by differential counting. The RPMI-1640 medium containing 3% fetal bovine serum albumin was added to each well of the plate, which was followed by stimulation with 10 μg/ml lipopolysaccharide (LPS). Usually 5×10^5 cells/ml were present by this preparation. The LPS-treated suspensions were incubated for 16 hours at 37° C. under 5% CO2 to induce COX-2. Then the culture medium was removed and the macrophages were washed two times with PBS. Then 130 μl RPMI-1640 culture medium was added to each well and the macrophage solutions were incubated at 37° C. for 10 minutes, which was followed by the treatment with 10 μM arachidonic acid and an appropriate amount of compounds of this invention. The plate was incubated for another 10 minutes. The upper solution was collected using a micropipette and was subjected to determination of PGE2 amount in the solution. The amount of PGE2 present in the collected solution was determined either by a known radio-immuno assay or by a known enzyme-immunoassay [Methods in Enzymol. 86, 258 (1982); Methods in Enzymol. 187, 24 (1990)]. The extent of COX-2 inhibition by a compound of the present invention was calculated by assuming, that the amount of PGE2 formed with the treatment of 10 μg/ml arachidonic acid was used is the maximum possible amount of PGE2, and that the amount of PGE2 formed without the treatment of arachidonic acid is the minimum possible amount of PGE2.
In the evaluation of COX-1 inhibitory activity by a compound of the present invention, the same procedures employed for evaluation of COX-2 activity were employed, except omitting the following two steps: 1) the treatment with aspirin for knockout of COX-1 activity and 2) treatment with LPS for induction of COX-2.
as §3

Row | SMILES | IC50, μg/ml COX-2 [1] | IC50, μg/ml COX-1 [2] | melting point | IC50 ([1]; read-out: IC50, μg/ml COX-2 (converted)) | IC50 ([2]; read-out: IC50, μg/ml COX-1 (converted))
1 | CCC1(C)OC(c2ccc(S(N)(=O)=O)cc2)=C(c2cccc(OC)c2)C1=O (stereo not shown) [Example 236] | 0.0097 µg/mL (≈ 0.025 µM) | 10.7 µg/mL (≈ 27.6 µM) | 69 to 70 °C |  | 
2 | CC1(C)OC(c2ccc(S(N)(=O)=O)c(Cl)c2)=C(c2cccc(Cl)c2)C1=O [Example 368] | 0.02 µg/mL (≈ 0.0485 µM) | 7 µg/mL (≈ 17 µM) | 162 to 163 °C |  | 
3 | CSc1ccc(C2=C(c3cc(F)cc(F)c3)C(=O)C(C)(C)O2)cc1Br [Example 340] | 10 µg/mL (≈ 23.5 µM) | 30 µg/mL (≈ 70.5 µM) | 115 to 116 °C |  | 
4 | CC1(C)OC(c2ccc(S(C)(=O)=O)c(Br)c2)=C(c2cc(F)cc(F)c2)C1=O [Example 345] | 0.03 µg/mL (≈ 0.0656 µM) | 50 µg/mL (≈ 109 µM) | 194 to 195 °C |  | 
5 | CC1(C)OC(c2ccc(S(C)(=O)=O)c(F)c2)=C(c2cccc(Cl)c2)C1=S [Example 385, 4-(3-Chlorophenyl)-2,2-dimethyl-5-{3-fluoro-4-(methylsulfonyl)phenyl}-(2H)-furan-3-thione] | 0.03 µg/mL (≈ 0.073 µM) | 0.05 µg/mL (≈ 0.122 µM) | 105 to 106 °C |  | 
6 | CC1(C)OC(c2ccc(S(N)(=O)=O)c(F)c2)=C(c2cccc(Cl)c2)C1=O [Example 305] | 0.003 µg/mL (≈ 0.00758 µM) | 0.3 µg/mL (≈ 0.758 µM) | 164 to 165 °C |  | 
7 | CCC1(C)OC(c2ccc(S(C)(=O)=O)cc2)=C(c2ccc(Cl)c(C(F)(F)F)c2)C1=O (stereo not shown) [Example 198] |  |  | 168 to 170 °C | 0.0654 µM | 6.54 µM
8 | CC1(C)OC(c2ccc(S(N)(=O)=O)cc2)=C(c2ccc(F)c(F)c2)C1=O [Example 138] | 0.0067 µg/mL (≈ 0.0177 µM) | 1.94 µg/mL (≈ 5.11 µM) | 210 to 211 °C |  | 
9 | COc1ccc(C2=C(c3ccc(S(N)(=O)=O)cc3)OC(C)(C)C2=O)cc1OC [Example 24, 5-{4-(Aminosulfonyl)phenyl}-4-{3,4-(dimethoxy)phenyl}-2,2-dimethyl 3(2H)-furanone] | 0.034 µg/mL (≈ 0.0843 µM) | 6.97 µg/mL (≈ 17.3 µM) |  |  | 
10 | CS(=O)(=O)c1ccc(C2=C(c3cccc(F)c3)C(=O)C3(CCOCC3)O2)cc1 [Example 261, 3-(3-Fluorophenyl)-2-{4-(methylsulfonyl)phenyl}-1,8-dioxa-spiro[4,5]dec-2-en-4-one] | 1 µg/mL (≈ 2.48 µM) | 300 µg/mL (≈ 745 µM) |  |  | 
11 | Cc1cc(C2=C(c3cc(F)cc(F)c3)C(=O)C(C)(C)O2)ccc1S(C)(=O)=O [Example 382, 4-(3,5-Difluorophenyl)-2,2-dimethyl-5-{3-methyl-4-(methylsulfonyl)phenyl}-3(2H)-furanone] | 0.08 µg/mL (≈ 0.204 µM) | 200 µg/mL (≈ 510 µM) |  |  | 

Results, then the compound that gave them:

Row | IC50, μg/ml COX-2 [1] | IC50, μg/ml COX-1 [2] | melting point | IC50 ([1]; read-out: IC50, μg/ml COX-2 (converted)) | IC50 ([2]; read-out: IC50, μg/ml COX-1 (converted)) | SMILES
12 | 0.03 µg/mL (≈ 0.0832 µM) | 20 µg/mL (≈ 55.5 µM) | 175 to 176 °C |  |  | CC1(C)OC(c2ccc(S(C)(=O)=O)cc2F)=C(c2ccccc2)C1=O [Example 321]
13 | 0.09 µg/mL (≈ 0.23 µM) | 200 µg/mL (≈ 510 µM) | 136 to 137 °C |  |  | CNS(=O)(=O)c1ccc(C2=C(c3ccccc3)C(=O)C(C)(C)O2)cc1Cl [Example 372, 5-{3-Chloro-4-(N-methylaminosulfonyl)phenyl}-2,2-dimethyl-4-phenyl-3(2H)-furanone]
14 | 0.0087 µg/mL (≈ 0.0211 µM) | 1.01 µg/mL (≈ 2.45 µM) | 209 to 210 °C |  |  | CC1(C)OC(c2ccc(S(N)(=O)=O)cc2)=C(c2cc(Cl)cc(Cl)c2)C1=O [Example 149]
15 | 0.003 µg/mL (≈ 0.00717 µM) | 5 µg/mL (≈ 11.9 µM) | 150 to 153 °C |  |  | CC1(C)OC(c2ccc(S(C)(=O)=O)cc2)=C(c2ccc(-c3ccccc3)cc2)C1=O [Example 77]
16 | 0.03 µg/mL (≈ 0.078 µM) | 3 µg/mL (≈ 7.8 µM) | 96 to 97 °C |  |  | CCC1(CC)OC(c2ccc(S(C)(=O)=O)cc2)=C(c2ccc(C)cc2)C1=O [Example 245]
17 | 0.2 µg/mL (≈ 0.531 µM) | 30 µg/mL (≈ 79.7 µM) | 168 to 170 °C |  |  | CC1(C)OC(c2ccc(S(C)(=O)=O)cc2)=C(c2ccc(C=O)s2)C1=O [Example 121]
18 | 0.02 µg/mL (≈ 0.0507 µM) | 3 µg/mL (≈ 7.6 µM) | 139 to 140 °C |  |  | CC1(C)OC(c2ccc(S(C)(=O)=O)cc2F)=C(c2cccc(Cl)c2)C1=O [Example 322]
19 | 0.3 µg/mL (≈ 0.727 µM) | 30 µg/mL (≈ 72.7 µM) |  |  |  | CCC1(CC)OC(c2ccc(S(C)(=O)=O)cc2)=C(c2ccc(C(C)=O)cc2)C1=O [Example 49, 4-(4-Acetylphenyl)-2,2-diethyl-5-{4-(methylsulfonyl)phenyl}-3(2H)-furanone]
20 | 0.3 µg/mL (≈ 0.739 µM) | 600 µg/mL (≈ 1480 µM) |  |  |  | CCNS(=O)(=O)c1ccc(C2=C(c3ccccc3)C(=O)C(C)(C)O2)cc1Cl [Example 373, 5-{3-Chloro-4-(N-ethylaminosulfonyl)phenyl}-2,2-dimethyl-4-phenyl-3(2H)-furanone]
